Measured values reported in patent US5750354A, “Lipoxin transport system and uses therefor” (priority 1994, dated 1998).
“And” between values parts separate entries of the source, which are not always exact repeats. Equal entries are not always repeated. “Also recorded” adds a separate entry of the source.

Experiments:
[1] = system: neutrophils; assay: Phagocytosis of opsonized sheep red blood cells by neutrophils; assay type: cell-based, human; details: 100 nM or 1000 nM, pH 7.4, 37° C., 30 minutes
Description: Neutrophils were prepared as described in the general methodology and suspended at a concentration of 10×10^6 -15×10^6 cells/ml in Hepes Hanks buffer, pH 7.4, supplemented with 1 mg/ml BSA, 1 mg/ml glucose, 0.5 mM MgCl2 and 1.0 mM CaCl2 --2H2 O.
The sheep red blood cells (SRBCs) were prepared by washing the cells with 1× veronal-buffered saline (VBS), incubating the cells with a 1:500 dilution of rabbit anti-SRBC IgG antibody at 37° C. for 15 minutes, centrifuging the cells at 2000 rpm for 5 minutes at 4° C. and washing the cells twice with 1×VBS. SRBCs were resuspended at a final concentration of 10×10^8 cells/ml.
Each component was pipetted separately to the bottom of a 12×75 mm test tube to allow thorough mixing of the components.
To each 100 μl mixture was added 15 μl of opsonized SRBCs to start the phagocytosis reaction. The tubes were vortexed and placed in a 37° C. incubator for 30 minutes. After 30 minutes, the tubes were placed on ice to stop the reaction.
Non-phagocytosed SRBCs were lysed by adding 1.0 ml of 0.83% NH4 Cl to each tube, with shaking, and centrifuging the tubes quickly at 1500 rpm for 3 minutes. The supernatant was removed and the pellets were resuspended in 30 gl of PBS. The 30 μl solution was placed onto a polylysine-coated microscope slide and after 15 minutes the excess solution was removed from the slide. The cells on the slide were fixed with 1% glutaraldehyde for 5 minutes and then the excess glutaraldehyde was removed. The cells were stained with Giemsa Stain by immersing the slide in the stain for 25 minutes, rinsing the slide with water and allowing the slide to dry overnight.
The slides were examined with a light microscope at 100×power. SRBCs which were phagocytosed by neutrophils were visible as yellow cells within blue-stained neutrophils. The results for each reaction were expressed as a phagocytic index, representing the number of SRBCs phagocytosed per 100 neutrophils. […]

[2] = nM levels; cited from earlier work
[3] = system: protein kinase C (PKC); details: about 10 nM; cited from earlier work
[4] = system: lipoxin transport system; assay: [3H]LXA4 influx into human neutrophils (unidirectional tracer flux); details: for final [3H]LXA4 uptake (combined data) / initial [3H]LXA4 influx rate (combined data): combined data: Control, 0.4 mM SITS, 1 mM probenecid, Na+-free medium, high K+ medium; for effect on [3H]LXA4 influx: probenecid 1 mM, SITS 0.4 mM
[5] = system: sulfate carrier; details: cited from earlier work
[6] = system: lipoxin transport system; assay: Irreversible inhibition of [3H]LXA4 influx after pretreatment of neutrophils with sulfhydryl-reactive agents; assay type: cell-based, human
[7] = system: Cl-/HCO3- exchanger; details: cited from earlier work
[8] = molecular target: T1, specific lipoxin receptors (Homo sapiens, UniProt P25090); assay: [3H]LXA4 ligand binding to human neutrophils
T1 sequence (P25090 1-351): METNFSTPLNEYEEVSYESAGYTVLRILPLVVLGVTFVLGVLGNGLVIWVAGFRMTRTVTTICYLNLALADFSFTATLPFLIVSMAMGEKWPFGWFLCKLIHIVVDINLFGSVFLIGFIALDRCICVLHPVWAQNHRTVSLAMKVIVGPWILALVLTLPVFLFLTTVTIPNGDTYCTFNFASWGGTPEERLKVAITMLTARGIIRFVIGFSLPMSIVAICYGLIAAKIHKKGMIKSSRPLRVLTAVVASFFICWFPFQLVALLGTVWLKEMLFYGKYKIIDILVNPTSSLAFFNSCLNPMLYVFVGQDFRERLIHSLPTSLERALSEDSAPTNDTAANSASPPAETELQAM
Description: (§1) Influx rates were calculated by fitting the data points to a single exponential equation (Eq. 1). Results have been taken from three experiments based upon duplicate determinations. […] Specific binding was taken as the difference between total and non-specific binding. […] Results are from three separate experiments, each performed in triplicate.

[9] = system: H+ +lactate- cotransporter; details: cited from earlier work
[10] = system: retinoic acid-induced HL-60 cells; assay: [3H]LXA4 uptake into retinoic acid-induced HL-60 cells; assay type: cell-based, human; details: 0.5 mM DISA, 5 nM LXA4
Description: (§2) HL-60 Cells: HL-60 cells were seeded into RPMI medium supplemented with 100 U/ml penicillin, 100 μg/ml streptomycin, and 10% fetal calf serum (Hyclone, Logan, Utah) and grown at 37° C. in 250 ml flasks in a 5% CO2 /95% air atmosphere. Cells were induced to differentiate toward a neutrophil-like phenotype by exposure to 1 μM retinoic acid for 5 days.
(§3) Human red cells, lymphocytes, and platelets were isolated from peripheral blood as described under Methods. Undifferentiated HL-60 cells were grown in culture according to standard protocols. Differentiated HL-60 cells were obtained by exposing cells to 1 μM retinoic acid for 5 days in culture. After harvesting and isolation, all cells were kept in the standard medium for 1 hour at 37° C. prior to assay. […] Results represent the means±SEM of three-four separate experiments for each cell type.

[11] = system: undifferentiated HL-60 cells; assay: [3H]LXA4 uptake into undifferentiated HL-60 cells; assay type: cell-based, human; details: 0.5 mM DISA, 5 nM LXA4
Description: as §2, §3

[12] = system: unstimulated human platelets; assay: [3H]LXA4 uptake into platelets; assay type: cell-based; details: 0.5 mM DISA, 5 nM LXA4
Description: Platelets: Platelets were purified to homogeneity from acid citrate dextrose-treated blood according to established protocols (Romano, M. and Serhan, C. N. (1992) Biochemistry 31:8269-8277).
as §3

[13] = system: human neutrophils; details: 500 µM
[14] = system: human neutrophils; assay: [3H]LXA4 methyl ester influx into human neutrophils; assay type: cell-based
Description: Incubations were performed at 37° C. in capped, plastic tubes (Falcon Plastics, Oxnard, Calif.) under various experimental conditions (neutrophils 15-20×10^6 /ml). […] At stated intervals, duplicate aliquots of the cell suspensions were layered onto 0.5 ml of silicone oil (Versilube F-5, General Electric Corp., Waterford, N.Y.) contained in 1.5 ml plastic tubes and centrifuged for 1 min at 8,000 g in a microcentrifuge (Beckman Instruments, Fullerton, Calif.).
The aqueous and oil phases were aspirated and discarded. […] Influx is expressed here as fmol/10^6 cells/min whereas flux rates in all previous work from our laboratory (L.S.) have been reported in meq/liter of cell water.min.
as §1

[15] = system: unstimulated human erythrocytes; assay: [3H]LXA4 uptake into erythrocytes; assay type: cell-based; details: 0.5 mM DISA, 5 nM LXA4
Description: Red Blood Cells (RBC): RBC were obtained directly from the heparinized blood of normal human donors. During repeated (four) washing steps, the uppermost portion of the cell pellets was aspirated and discarded to remove residual minor contamination of buffy coat cells.
as §3

[16] = system: unstimulated human lymphocytes; assay: [3H]LXA4 uptake into lymphocytes; assay type: cell-based; details: 0.5 mM DISA, 5 nM LXA4
Description: Lymphocvtes: The lymphocyte-rich interface layer was taken at the Ficoll-Hypaque gradient step of the neutrophil purification procedure. Platelets were removed by slow-speed centrifugation (see below) and contaminating monocytes and neutrophils by adherence to plastic Petri dishes for 1 hour at 37 ° C.
as §3

CCCCC[C@H](O)[C@H](O)/C=C/C=C/C=C\C=C\[C@@H](O)CCCC(=O)O [LXB4, lipoxin B4]
effect on neutrophil phagocytosis, phagocytic index [1]: inhibit phagocytosis | vasodilation [2]: elicit prompt vasodilation | effect on PKC activity [3]: enhance

CCCN(CCC)S(=O)(=O)c1ccc(C(=O)O)cc1 [probenecid]
final [3H]LXA4 uptake (combined data) ([4]; 5 nM LXA4): 7.26±0.26 fmol/10^6 cells | initial [3H]LXA4 influx rate (combined data) ([4]; 5 nM LXA4): 0.57±0.09 fmol/10^6 cells/min | effect on [3H]LXA4 influx [4]: no apparent impact; also recorded: not inhibited | sensitivity of the sulfate carrier [5]: very sensitive

O=C(O)c1cc[c]([Hg+])cc1.[OH-] [pHMB, p-hydroxymercuribenzoate]
% Inhibition of Transport (irreversible) [6]: ~ 65% and 66 ± 4% | effect on Cl-/HCO3- exchange [7]: resistant | effect on binding of lipoxin to specific receptors [8]: not inhibitable

CCN1C(=O)C=CC1=O [NEM, N-ethylmaleimide]
effect on H+ +lactate- cotransport / lactic acid fluxes [9]: completely blocked | effect of SH-reactive compounds on [3H]LXA4 influx ([4]; 1 mM NEM, 0.4 mM iodoacetate): lacked efficacy; also recorded: do not inhibit

CC(=O)Nc1ccc(C=Cc2ccc(N=C=S)cc2S(=O)(=O)O)c(S(=O)(=O)O)c1 [SITS, 4-acetamido-4'-isothiocyanostilbene-2,2'-disulfonic acid]
final [3H]LXA4 uptake (combined data) ([4]; 5 nM LXA4): 7.26±0.26 fmol/10^6 cells | initial [3H]LXA4 influx rate (combined data) ([4]; 5 nM LXA4): 0.57±0.09 fmol/10^6 cells/min | effect on [3H]LXA4 influx [4]: no apparent impact; also recorded: not inhibited | sensitivity of the sulfate carrier [5]: very sensitive

O=C(O)c1cc(I)cc(I)c1O [DISA, 3,5-diiodo-salicylic acid]
[3H]LXA4 Uptake Rate in the presence of DISA [10]: 0.08 ± 0.02 fmol/10^6 cells/min | inhibition of FMLP-enhanced [3H]LXA4 uptake ([4]; 100 nM FMLP + DISA): completely sensitive to inhibition | inhibition of PMA-induced enhancement of [3H]LXA4 influx ([4]; 100 nM PMA + DISA): competely sensitive to inhibition | [3H]LXA4 uptake by 1 min of incubation ([4]; 0.5 mM DISA): 2.9 fmol/10^6 cells | effect on transport system-mediated component of uptake ([4]; 0.5 mM DISA): completely blocks; also recorded: markedly sensitive; also recorded: blocked | slope of straight-line fit of [3H]LXA4 uptake in presence of drug ([4]; 0.5 mM DISA, 5 nM LXA4, not distinguishable from zero): 0.0046±0.0051 fmol/10^6 cells/min | cell-associated [3H]LXA4, average of all data points ([4]; 0.5 mM DISA, 1-30 min): 2.88 fmol/10^6 cells | inhibition of [3H]LXA4 influx ([4]; 0.5 mM drug): > 80% | effect on uptake of [3H]LXA4 ([4]; each at 0.2-0.5 mM): inhibited the uptake | IC50 ([4]; read-out: K0.5, concentration at which 50% of lipoxin transport is inhibited, drug 0-500 μM, uptake at 10 and 20 min, Michaelis-Menten inhibition kinetics): 12 ± 2 µM | [3H]LXA4 Uptake Rate in the presence of DISA [11]: 0.12 ± 0.02 fmol/10^6 cells/min | [3H]LXA4 Uptake Rate in the presence of DISA [12]: -0.0005 ± 0.0015 fmol/10^6 cells/min | efflux final value (relative cell content, combined data set) [13]: 0.46±0.02 | efflux rate coefficient (combined data set) [13]: 0.098 ± 0.008 min⁻¹ | effect on binding of lipoxin to specific receptors [8]: not inhibitable | [3H]LXA4 Binding, non-specific, in presence of drug ([8]; 0.5 mM drug, + unlabeled LXA4 0.3 μM): 0.41 ± 0.05 fmol/10^6 cells | [3H]LXA4 Binding, total, in presence of drug ([8]; 0.5 mM drug, no unlabeled LXA4): 1.23 ± 0.08 fmol/10^6 cells | [3H]LXA4 ME Influx in presence of drug ([14]; 0.5 mM drug): 481 ± 170 fmol/10^6 cells/min | effect of drugs on [3H]LXA4 ME influx ([14]; DISA 0.5 mM, PCP 0.4 mM, mersalyl 0.5 mM): completely resistant | [3H]LXA4 Uptake Rate in the presence of DISA [15]: 0.0019 ± 0.0008 fmol/10^6 cells/min | [3H]LXA4 Uptake Rate in the presence of DISA [16]: 0.0053 ± 0.0036 fmol/10^6 cells/min
